Measurements reported in patent US20100173835A1, “Peptides for Treatment of Obesity” (Novo Nordisk A/S, priority 2008, published 2010).
Values after ≈ are worked out from the molar mass of the structure shown. Like-named read-outs stand apart in the source and are kept apart here. Where a SMILES comes first, the peptide text is derived from it. Bridges are numbered along the chain shown (N, C = ends). [ ]: non-standard residue; d: D form. The star is where a group is joined. Palmitoyl(16-(5-tetrazolyl)) = O=C(CCCCCCCCCCCCCCCc1nnn[nH]1)*; Lys(CH2CO2H)2 = N[C@@H](CCCCN(CC(=O)O)CC(=O)O)C(=O)O; Hyp = O=C(O)[C@@H]1C[C@@H](O)CN1; NTA = O=C(O)CN(CC(=O)O)CC(=O)*; Nle = CCCC[C@H](N)C(=O)O; Orn = NCCC[C@H](N)C(=O)O; Dap = NC[C@H](N)C(=O)O; AEEA = NCCOCCOCC(=O)O

Legend:
human MC4 receptor = target: T1, human MC4 receptor (Homo sapiens, UniProt P32245); experiment: Assay (V) Melanocortin Receptor 4 (MC4) binding assay; settings: 125NDP-α-MSH binding, BHK cell membranes
T1 construct: expressed in transfected cells
T1 sequence (P32245 whole entry): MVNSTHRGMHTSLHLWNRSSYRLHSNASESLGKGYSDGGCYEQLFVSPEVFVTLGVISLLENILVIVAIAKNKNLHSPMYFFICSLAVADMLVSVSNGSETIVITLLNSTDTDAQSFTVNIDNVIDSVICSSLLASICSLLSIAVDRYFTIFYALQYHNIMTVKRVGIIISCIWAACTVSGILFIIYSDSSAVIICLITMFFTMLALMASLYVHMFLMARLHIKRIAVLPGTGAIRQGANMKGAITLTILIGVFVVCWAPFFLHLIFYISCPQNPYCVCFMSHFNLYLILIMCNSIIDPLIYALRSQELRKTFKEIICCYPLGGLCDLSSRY
In short: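 BHK membranes stably expressing human MC4 receptor were incubated with ^125NDP-α-MSH (≈79 pM final) and compound for 2 h at 25 °C, pH 7.0 HEPES buffer with HSA or ovalbumin. Filter-bound radioactivity was gamma counted. Binding curves were fitted by non-linear regression.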

ad libitum fed rat model = experiment: Assay (I) efficacy testing on appetite, ad libitum fed rat model; type: in vivo
Method: Assay (I)—Experimental protocol for efficacy testing on appetite with MC4 analogues, using an ad libitum fed rat model. TAC:SPRD @mol rats or Wistar rats from M&B Breeding and Research Centre A/S, Denmark are used for the experiments. The rats have a body weight 200-250 g at the start of experiment. The rats arrive at least 10-14 days before start of experiment with a body weight of 180-200 g. Each dose of compound is tested in a group of 8 rats. […] When the animals arrive they are housed individually in a reversed light/dark phase (lights off 7:30 am, lights on 7:30 pm), meaning that lights are off during daytime and on during nighttime. […] During this period the animals are handled at least 3 times. The experiment is conducted in the rats' home cages. Immediately before dosing the rats are randomised to the various treatment groups (n 8) by body weight. They are dosed according to body weight at between 7:00 am and 7:45 am, with a 1-3 mg/kg solution administered intraperitoneally (ip), orally (po) or subcutaneously (sc). The time of dosing is recorded for each group. After dosing, the rats are returned to their home cages, where they then have access to food and water. […] At the end of the experimental session, the animals are euthanised. The individual data are recorded in Microsoft excel sheets. Outliers are excluded after applying the Grubbs statistical evaluation test for outliers, and the result is presented graphically using the GraphPad Prism program.

MC1 receptor = target: T2, MC1 receptor (Homo sapiens, UniProt Q01726); experiment: Assay (IV) Melanocortin Receptor 1 (MC1) binding assay
T2 construct: expressed in transfected cells
T2 sequence (Q01726 whole entry): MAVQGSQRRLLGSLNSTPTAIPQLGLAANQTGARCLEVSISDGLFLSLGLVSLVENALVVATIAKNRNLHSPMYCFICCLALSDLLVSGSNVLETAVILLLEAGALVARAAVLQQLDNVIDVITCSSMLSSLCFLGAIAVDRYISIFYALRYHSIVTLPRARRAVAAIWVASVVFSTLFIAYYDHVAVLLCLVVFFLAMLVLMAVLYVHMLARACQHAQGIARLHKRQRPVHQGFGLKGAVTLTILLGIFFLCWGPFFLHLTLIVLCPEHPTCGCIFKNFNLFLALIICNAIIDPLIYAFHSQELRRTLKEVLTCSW
In short: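 Competition binding used BHK cell membranes stably expressing MC1 (25 μg/ml) with 22 pM final ^125NDP-α-MSH in 25 mM HEPES pH 7.4, CaCl2, MgSO4, EDTA, 0.1% HSA (or ovalbumin), 0.005% Tween 20. After 90 min at 30° C., bound radioligand was filtered and counted, with binding curves fitted by non-linear regression.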

[1] = Solubility data of compounds in water over the pH range; type: physicochemical
[2] = 125NDP-α-MSH binding, BHK cell membranes, read-out: Assay (IV) MC1 Ki

With `CCCC[C@H](NC(=O)[C@H](CCCCNC(=O)CN(CC(=O)O)CC(=O)O)NC(=O)[C@H](Cc1c[nH]cn1)NC(=O)[C@H](CCC(N)=O)NC(=O)[C@H](CO)NC(=O)CNC(=O)COCCOCCNC(=O)CCCCCCCCCCCCCCCc1nnn[nH]1)C(=O)N[C@H]1CCC(=O)NCCCC[C@@H](C(N)=O)NC(=O)[C@H](Cc2c[nH]c3ccccc23)NC(=O)[C@H](CCCNC(=N)N)NC(=O)[C@@H](Cc2ccccc2)NC(=O)[C@@H]2C[C@@H](O)CN2C1=O` [Example 1, (2-{2-[16-(Tetrazol-5-yl)hexadecanoylamino]ethoxy}ethoxy)acetyl-Gly-Ser-Gln-His-Lys(BCMA)-Nle-c[Glu-Hyp-D-Phe-Arg-Trp-Lys]-NH2] ({Palmitoyl(16-(5-tetrazolyl))-AEEA}-GSQHK(NTA)[Nle]E[Hyp][dF]RWK-NH2; lactam 7-12) the Ki (human MC4 receptor; read-out: Assay (V) MC4 [Ki]) was 0.4 nM, the “Food consumption (% of vehicle) 24 h” value (ad libitum fed rat model; dosing 3 mg/kg) was 65 % of vehicle and the “Food consumption (% of vehicle) 48 h” value (ad libitum fed rat model; dosing 3 mg/kg) was 72 % of vehicle. The Ki (MC1 receptor; [2]) was greater than 10000 nM.

In the case of `CCCC[C@H](NC(=O)[C@H](CCCCNC(=O)CN(CC(=O)O)CC(=O)O)NC(=O)[C@H](CO)NC(=O)[C@H](CCC(N)=O)NC(=O)[C@H](CO)NC(=O)CNC(=O)COCCOCCNC(=O)CCCCCCCCCCCCCCCc1nnn[nH]1)C(=O)N[C@H]1CCC(=O)NCCCC[C@@H](C(N)=O)NC(=O)[C@H](Cc2c[nH]c3ccccc23)NC(=O)[C@H](CCCNC(=N)N)NC(=O)[C@@H](Cc2ccccc2)NC(=O)[C@@H]2C[C@@H](O)CN2C1=O` [Example 15, (2-{2-[16-(Tetrazol-5-yl)hexadecanoylamino]ethoxy}ethoxy)acetyl-Gly-Ser-Gln-Ser-Lys(BCMA)-Nle-c[Glu-Hyp-D-Phe-Arg-Trp-Lys]-NH2] ({Palmitoyl(16-(5-tetrazolyl))-AEEA}-GSQSK(NTA)[Nle]E[Hyp][dF]RWK-NH2; lactam 7-12), the Ki (human MC4 receptor; read-out: Assay (V) MC4 [Ki]) is reported as 3.15 nM, the “Food consumption (% of vehicle) 24 h” value (ad libitum fed rat model; dosing 1 mg/kg) is reported as 74 % of vehicle and the “Food consumption (% of vehicle) 48 h” value (ad libitum fed rat model; dosing 1 mg/kg) is reported as 85 % of vehicle. The Ki (MC1 receptor; [2]) was greater than 10000 nM.

`CCCC[C@H](NC(=O)[C@H](CCCCN(CC(=O)O)CC(=O)O)NC(=O)[C@H](Cc1c[nH]cn1)NC(=O)[C@H](CCC(N)=O)NC(=O)[C@H](CO)NC(=O)[C@H](CO)NC(=O)[C@H](CCC(N)=O)NC(=O)[C@@H](CO)NC(=O)CNC(=O)COCCOCCNC(=O)COCCOCCNC(=O)CCCCCCCCCCCCCCCc1nnn[nH]1)C(=O)N[C@H]1CCC(=O)NCCCC[C@@H](C(N)=O)NC(=O)[C@H](Cc2c[nH]c3ccccc23)NC(=O)[C@H](CCCNC(=N)N)NC(=O)[C@@H](Cc2ccccc2)NC(=O)[C@@H]2C[C@@H](O)CN2C1=O` [Example 3, (2-{2-[2-(2-{2-[16-(Tetrazol-5-yl)hexadecanoylamino]ethoxy}ethoxy)acetylamino]ethoxy}ethoxy)acetyl-Gly-D-Ser-Gln-Ser-Ser-Gln-His-Lys(biscarboxymethyl)-Nle-c[Glu-Hyp-D-Phe-Arg-Trp-Lys]-NH2] ({Palmitoyl(16-(5-tetrazolyl))-AEEA-AEEA}-G[dS]QSSQH[Lys(CH2CO2H)2][Nle]E[Hyp][dF]RWK-NH2; lactam 10-15) gave a Ki (human MC4 receptor; Assay (V) MC4 [Ki] (nM)) of 1.95 nM, a solubility at 3 days ([1]; pH 2.95, pH 2.95, read-out: Conc (solubility in water)) of 435 µM (≈ 1100 µg/mL) and a solubility at 3 days ([1]; pH 3.88, pH 3.88, read-out: Conc (solubility in water)) of 570 µM (≈ 1440 µg/mL). For the same compound, the solubility at 3 days ([1]; pH 4.82, pH 4.82, read-out: Conc (solubility in water)) was 429 µM (≈ 1080 µg/mL), the solubility at 3 days ([1]; pH 4.84, pH 4.84, read-out: Conc (solubility in water)) was 324 µM (≈ 818 µg/mL) and the solubility at 3 days ([1]; pH 5.18, pH 5.18, read-out: Conc (solubility in water)) was 75 µM (≈ 189 µg/mL). The solubility at 3 days ([1]; pH 6.1, pH 6.10, read-out: Conc (solubility in water)) was 39 µM (≈ 98.5 µg/mL), the solubility at 3 days ([1]; pH 6.95, pH 6.95, read-out: Conc (solubility in water)) was 87 µM (≈ 220 µg/mL) and the solubility at 3 days ([1]; pH 7.15, pH 7.15, read-out: Conc (solubility in water)) was 190 µM (≈ 480 µg/mL). For the same compound, the solubility at 3 days ([1]; pH 7.24, pH 7.24, read-out: Conc (solubility in water)) was 256 µM (≈ 646 µg/mL), the solubility at 3 days ([1]; pH 7.29, pH 7.29, read-out: Conc (solubility in water)) was 316 µM (≈ 798 µg/mL) and the Ki (MC1 receptor) was greater than 10000 nM.

With `CCCC[C@H](NC(=O)[C@H](CNC(=O)CN(CC(=O)O)CC(=O)O)NC(=O)[C@H](CO)NC(=O)[C@H](CCC(N)=O)NC(=O)[C@H](CO)NC(=O)CNC(=O)COCCOCCNC(=O)COCCOCCNC(=O)COCCOCCNC(=O)COCCOCCNC(=O)CCCCCCCCCCCCCCCc1nnn[nH]1)C(=O)N[C@H]1CCC(=O)NCCCC[C@@H](C(N)=O)NC(=O)[C@H](Cc2c[nH]c3ccccc23)NC(=O)[C@H](CCCNC(=N)N)NC(=O)[C@@H](Cc2ccccc2)NC(=O)[C@@H]2C[C@@H](O)CN2C1=O` [Example 14, (2-{2-[2-(2-{2-[2-(2-{2-[2-(2-{2-[16-(Tetrazol-5-yl)hexadecanoylamino]ethoxy}ethoxy)acetylamino]ethoxy}ethoxy)acetylamino]ethoxy}ethoxy)acetylamino]ethoxy}ethoxy)acetyl-Gly-Ser-Gln-Ser-Dap(BCMA)-Nle-c[Glu-Hyp-D-Phe-Arg-Trp-Lys]-NH2] ({Palmitoyl(16-(5-tetrazolyl))-AEEA-AEEA-AEEA-AEEA}-GSQS[Dap](NTA)[Nle]E[Hyp][dF]RWK-NH2; lactam 7-12) the Ki (human MC4 receptor; read-out: Assay (V) MC4 [Ki]) was 8.65 nM, the solubility at 3 days ([1]; pH 3.18) was 19 µM (≈ 47.1 µg/mL) and the solubility at 3 days ([1]; pH 4.62) was 15 µM (≈ 37.2 µg/mL). The solubility at 3 days ([1]; pH 4.66) was 23 µM (≈ 57 µg/mL), the solubility at 3 days ([1]; pH 5.07) was 18 µM (≈ 44.6 µg/mL) and the solubility at 3 days ([1]; pH 5.37) was 10 µM (≈ 24.8 µg/mL). The solubility at 3 days ([1]; pH 5.84) was 41 µM (≈ 102 µg/mL), the solubility at 3 days ([1]; pH 6.5) was 19 µM (≈ 47.1 µg/mL) and the solubility at 3 days ([1]; pH 7) was 17 µM (≈ 42.1 µg/mL). It also gave a solubility at 3 days ([1]; pH 7.29) of 20 µM (≈ 49.6 µg/mL), a solubility at 3 days ([1]; pH 7.43) of 29 µM (≈ 71.9 µg/mL) and a Ki (MC1 receptor; [2]) greater than 10000 nM.

`CCCC[C@H](NC(=O)[C@H](CCCNC(=O)CN(CC(=O)O)CC(=O)O)NC(=O)[C@H](Cc1c[nH]cn1)NC(=O)[C@H](CCC(N)=O)NC(=O)[C@H](CO)NC(=O)CNC(=O)COCCOCCNC(=O)CCCCCCCCCCCCCCCc1nnn[nH]1)C(=O)N[C@H]1CCC(=O)NCCCC[C@@H](C(N)=O)NC(=O)[C@H](Cc2c[nH]c3ccccc23)NC(=O)[C@H](CCCNC(=N)N)NC(=O)[C@@H](Cc2ccccc2)NC(=O)[C@@H]2C[C@@H](O)CN2C1=O` [Example 8, (2-{2-[16-(Tetrazol-5-yl)hexadecanoylamino]ethoxy}ethoxy)acetyl-Gly-Ser-Gln-His-Orn(BCMA)-Nle-c[Glu-Hyp-D-Phe-Arg-Trp-Lys]-NH2] ({Palmitoyl(16-(5-tetrazolyl))-AEEA}-GSQH[Orn](NTA)[Nle]E[Hyp][dF]RWK-NH2; lactam 7-12) gave a Ki (human MC4 receptor; Assay (V) MC4 [Ki] (nM)) of 0.9 nM, a solubility at 3 days ([1]; pH 2.96, pH 2.96, read-out: Conc (solubility in water)) of 716 µM (≈ 1520 µg/mL) and a solubility at 3 days ([1]; pH 4.1, pH 4.1, read-out: Conc (solubility in water)) of 536 µM (≈ 1140 µg/mL). The solubility at 3 days ([1]; pH 4.24, pH 4.24, read-out: Conc (solubility in water)) was 389 µM (≈ 825 µg/mL), the solubility at 3 days ([1]; pH 4.87, pH 4.87, read-out: Conc (solubility in water)) was 34 µM (≈ 72.1 µg/mL) and the solubility at 3 days ([1]; pH 5.9, pH 5.9, read-out: Conc (solubility in water)) was 10 µM (≈ 21.2 µg/mL). It also gave a solubility at 3 days ([1]; pH 6.7, pH 6.7, read-out: Conc (solubility in water)) of 26 µM (≈ 55.1 µg/mL), a solubility at 3 days ([1]; pH 7.45, pH 7.45, read-out: Conc (solubility in water)) of 271 µM (≈ 575 µg/mL) and a solubility at 3 days ([1]; pH 7.47, pH 7.47, read-out: Conc (solubility in water)) of 116 µM (≈ 246 µg/mL). The solubility at 3 days ([1]; pH 7.75, pH 7.75, read-out: Conc (solubility in water)) was 280 µM (≈ 594 µg/mL), the solubility at 3 days ([1]; pH 7.95, pH 7.95, read-out: Conc (solubility in water)) was 546 µM (≈ 1160 µg/mL) and the Ki (MC1 receptor) was greater than 10000 nM.
